The results in this text go back to the Deep4Chem optical property database.

The data set in a line: photoluminescence quantum yield (fraction); solvent given as SMILES.
[1] abbreviates: in O=P(c1ccccc1)(c1ccccc1)c1ccccc1Oc1ccccc1P(=O)(c1ccccc1)c1ccccc1.

On to `NCCCCCCCCCCCCN1C(=O)c2ccc3c4ccc5c6c(ccc(c7ccc(c2c37)C1=O)c64)C(=O)N(c1ccc(O)cc1)C5=O`, for which, for the setting “in CN(C)C=O”, the photoluminescence quantum yield is 0.91.

Under “in Cc1ccccc1”, `CCCC1=Cc2nc1ccc1[nH]c(cc1CCC)c1nc(c(NC(C)=O)cc3[nH]c2cc3CCC)C(CCC)=C1` yielded a photoluminescence quantum yield of 0.1.

`Cc1ccc2c(c1)C(=O)c1ccncc1-2`: the photoluminescence quantum yield runs as follows: (in CC#N) 0.019; (in CCCCCC) 0.0032; (in CCOC(C)=O) 0.036; (in Cc1ccccc1) 0.031; (in ClCCl) 0.022.

Consider `c1ccc(N(c2ccccc2)c2ccc(-c3ccc(-c4ccc(-c5ccc(-c6ccc(N(c7ccccc7)c7ccccc7)cc6)s5)c5nsnc45)s3)cc2)cc1`, for which the photoluminescence quantum yield (in ClC(Cl)Cl) was 0.23.

Consider `Cc1nc2c(ccc3ccccc32)oc1=O`, for which the photoluminescence quantum yield (in c1ccccc1) turned out to be 0.198.

For the compound `F[B-]1(F)OC(c2ccc3c(c2)Cc2ccccc2-3)=CC(c2ccccc2)=[O+]1`, the photoluminescence quantum yield (in CC#N) was found to be 0.96.

For `CC(C)(C)C1=CC2=C3C(=CC=C4C=CC(c5cc6c7cc(-c8ccc9ccc%10cc(C(C)(C)C)cc%11ccc8c9c%10%11)ccc7c(-c7ccc8ccc9cc(C(C)(C)C)cc%10ccc7c8c9%10)cc6c6cc(-c7ccc8ccc9cc(C(C)(C)C)cc%10ccc7c8c9%10)ccc56)=C(C=C2)C43)C1` (configuration not stated), the photoluminescence quantum yield (in ClCCl) was 0.874.

Regarding `CCCCCCN1C(=O)c2cccc3c(-c4sc(-c5ccc6c7c(cccc57)C(=O)N(CCCCCC)C6=O)c5c4OCCO5)ccc(c23)C1=O`, under “in ClC(Cl)Cl”, the photoluminescence quantum yield stood at 0.22.

With `COc1ccc(C2=C3C=c4c(oc5cc6c(cc45)[C@H]4CC[C@]5(C)C(=O)CC[C@H]5[C@@H]4CC6)=[N+]3[B-](F)(F)n3c2cc2c4cc5c(cc4oc23)CC[C@@H]2[C@@H]5CC[C@]3(C)C(=O)CC[C@@H]23)cc1`, the photoluminescence quantum yield came out at 0.61 (in CCOC(C)=O), 0.88 (in CCOCC) and 0.52 (in CO).

Take `CC1=CC(C)=[N+]2C1=Cc1cccn1[B-]2(F)F`: the photoluminescence quantum yield runs as follows: (in CCCCCC) 0.93; (in CO) 0.99; (in ClCCl) 0.87.

Where the note is “in C1CCCCC1”, `CCCC1(CCC)c2cc(-c3ccc4c(c3)C(CCC)(CCC)c3cc(C(C)(C)CC)ccc3-4)ccc2-c2ccc(-c3ccc4c(c3)C(CCC)(CCC)c3cc(C(C)(C)CC)ccc3-4)cc21` displayed a photoluminescence quantum yield of 0.93.

The compound `CC(C)(C)c1ccc(-c2c(-c3ccc4c5ccccc5n(-c5ccccc5)c4c3)c(C#N)c(-c3ccc4c5ccccc5n(-c5ccccc5)c4c3)c(-c3ccc(C(C)(C)C)cc3)c2-c2ccc(C(C)(C)C)cc2)cc1` showed a photoluminescence quantum yield (in C1CCOC1) of 0.457.

As for `F[B-]1(F)OC(c2cc3c4c(c2)CCCN4CCC3)=Cc2cccc[n+]21`, the photoluminescence quantum yield (in ClC(Cl)Cl) stood at 0.57.

Take `CCC1=C(C)C2=C(C)c3cc(I)cn3[B-](F)(F)[N+]2=C1C`: the photoluminescence quantum yield by setting is: (in C1CCCCC1) 0.13; (in CC(C)=O) 0.087; (in CCO) 0.095; (in CCOC(C)=O) 0.097; (in CO) 0.086; (in OCC(F)(F)F) 0.075.

For the setting “in Cc1ccccc1”, `CCCCCCCCCC1(CCCCCCCCC)c2cc(C#Cc3ccc(C#Cc4ccc(N(CCCCCC)CCCCCC)cc4)cc3)ccc2-c2ccc(C#Cc3ccc(C#Cc4ccc(N(CCCCCC)CCCCCC)cc4)cc3)cc21` registered a photoluminescence quantum yield of 0.82.

In turn, `c1ccc(-c2cc3cccc[n+]3[b-]3ccc(-c4cc[b-]5c(c4)c(-c4ccccc4)cc4cccc[n+]54)cc32)cc1` registered a photoluminescence quantum yield (in C1CCCCC1) of 0.16.

For the compound `CC1=CC(C)=[N+]2C1=C(c1ccc(I)cc1)c1c(C)cc(C)n1[B-]21Oc2ccccc2O1`, the photoluminescence quantum yield (in ClC(Cl)Cl) worked out at 0.

For the compound `CCN(CC)c1ccc2cc(-c3nc4cc(C(=O)Nc5ccccc5Cl)ccc4o3)c(=O)oc2c1`, the photoluminescence quantum yield (in ClCCl) worked out at 0.23.

As for `Cc1cc(C)c(N(c2ccccc2)c2ccc(S(=O)(=O)c3ccc(S(=O)(=O)c4ccc(N(c5ccccc5)c5c(C)cc(C)cc5C)cc4)cc3)cc2)c(C)c1`, the photoluminescence quantum yield (in Cc1ccccc1) is 0.79.

For the compound `CC1(C)OB(c2ccc3ccc4cccc5ccc2c3c45)OC1(C)C`, the photoluminescence quantum yield (in Cc1ccccc1) was 0.81.

In the case of `CN(C)c1ccc(C#Cc2ccc(C=O)cc2)cc1`, the photoluminescence quantum yield was found to be 0.363 (in C1CCCCC1); 0.131 (in C1CCOC1); 0.254 (in C1COCCO1); 0.223 (in CC1CCCO1); 0.012 (in CC#N); 0.047 (in CC(C)=O). Besides, the photoluminescence quantum yield reads like this: (in CC(C)CC(C)(C)C) 0.044; (in CC(C)O) 0.017; (in CCCCCCCCCCCCCCCC) 0.056; (in CCCCCCCCCCCCCCCCCl) 0.093; (in CCOC(C)=O) 0.174; (in CCOCC) 0.201. In addition, the photoluminescence quantum yield reads like this: (in CN(C)C=O) 0.046; (in CO) 0.006; (in CS(C)=O) 0.037; (in Cc1ccccc1) 0.337.

As to `CCCCCCOc1cc(N(CC)CC)ccc1/C=C/C(=C(C#N)C#N)c1ccc2c(c1)c1ccccc1n2CC`, the photoluminescence quantum yield (in ClCCl) came out at 0.121.

In turn, `F[Si](c1ccccc1)(c1c2ccccc2cc2ccccc12)c1c2ccccc2cc2ccccc12` had a photoluminescence quantum yield (in C1CCOC1) of 0.17.

The compound `Cc1ccc2c(c1)c1cc(C)ccc1n2-c1cc(-c2nc(-c3ccccc3)nc(-c3ccccc3)n2)cc(-n2c3ccc(C)cc3c3cc(C)ccc32)c1-n1c2ccc(C)cc2c2cc(C)ccc21` gave a photoluminescence quantum yield under setting [1] of 1.

The compound `CCCCCCCCCCCCOc1ccc(C2=C3C(=O)N(CC(OCC)OCC)C(c4ccc(OCCCCCCCCCCCC)c(OCCCCCCCCCCCC)c4)=C3C(=O)N2CC(OCC)OCC)cc1OCCCCCCCCCCCC` gave a photoluminescence quantum yield (in ClC(Cl)Cl) of 0.9.

With `Cc1cc(C)c(C2=C3C=CC4=[N+]3[B-]3(Oc5ccccc54)Oc4ccccc4-c4ccc2n43)c(C)c1` (configuration not stated), under “in ClC(Cl)Cl”, the photoluminescence quantum yield was determined as 0.72.

Take `Cc1cnc(NC(=O)C2=C(O)c3ccccc3S(=O)(=O)N2C)s1`: the photoluminescence quantum yield reads like this: (in C1COCCO1) 0.0133; (in CC#N) 0.0147; (in CCCCO) 0.0231; (in CCCO) 0.0164; (in CCO) 0.0106; (in CCOC(C)=O) 0.0113. Moreover, under “in CO”, the photoluminescence quantum yield was determined as 0.00754.

Compound `CN(C)c1ccc2nc3c(cc2c1)c(-c1ccccc1)nn3-c1ccccc1` gave a photoluminescence quantum yield (in C1CCCCC1) of 0.84; a photoluminescence quantum yield (in C1CCOC1) of 0.62; a photoluminescence quantum yield (in CC#N) of 0.57; a photoluminescence quantum yield (in CC(C)=O) of 0.58; a photoluminescence quantum yield (in CCCCCl) of 0.64; a photoluminescence quantum yield (in CCCCOCCCC) of 0.77. Moreover, the photoluminescence quantum yield (in CN(C)C=O) was found to be 0.46.

For the compound `CCN(CC)c1ccc(C2=C3C(C)=CC(C)=[N+]3[B-](F)(F)n3c(C)cc(C)c32)cc1`, for the setting “in CO”, the photoluminescence quantum yield turned out to be 0.56.

As for `Cn1cccc1-c1cc(C#N)ccc1C#N`, the photoluminescence quantum yield (in C1CCOC1) was 0.139; the photoluminescence quantum yield (in CC#N) turned out to be 0.024; the photoluminescence quantum yield (in CCCCCC) is 0.378; the photoluminescence quantum yield (in CCCCOCCCC) worked out at 0.281; the photoluminescence quantum yield (in CCOCC) was 0.206.

Regarding `CCN(CC)c1ccc(C2=C3C(C)=CC(/C=C/c4ccc(OCC(=O)OC)cc4)=[N+]3[B-](F)(F)n3c(C)cc(C)c32)cc1`, the photoluminescence quantum yield (in CO) was found to be 0.87.

For `COc1cc2c(cc1-c1ccc(C)cc1)Cc1c3c(c4c(c1-2)-c1cc(OC)c(-c2ccc(C)cc2)cc1C4)C(=O)N(CCC(C)C)C3=O`, the photoluminescence quantum yield (in C1CCOC1) stood at 0.67.

`CCCCCCCCOc1ccc(C2=C(c3ccc(OCCCCCCCC)cc3)C(C)(C)c3ccccc32)cc1` came in with a photoluminescence quantum yield (in C1CCCCC1) of 0.11.

Regarding `Cc1ccc(C2=C3C=CC(/C=C/c4ccccc4)=[N+]3[B-](F)(F)n3c(Cl)ccc32)cc1`, the photoluminescence quantum yield (in C1CCCCC1) was 0.72; the photoluminescence quantum yield (in C1CCOC1) was 0.56; the photoluminescence quantum yield (in C1COCCO1) was 0.6; the photoluminescence quantum yield (in CCOC(C)=O) came to 0.57; the photoluminescence quantum yield (in CO) was found to be 0.55; the photoluminescence quantum yield (in Cc1ccccc1) stood at 0.69. This compound returned a photoluminescence quantum yield (in ClC(Cl)Cl) of 0.68.

`c1ccc([B-]2(c3ccccc3)Oc3ccc4ccccc4c3-c3c4ccccc4cc[n+]32)cc1` had a photoluminescence quantum yield (in Cc1ccccc1) of 0.32.

In turn, `C(=C\c1ncc(-c2ccc(OCc3ccccc3)c(OCc3ccccc3)c2)o1)/c1cccc(N2CCN(c3ccccc3)CC2)c1` had a photoluminescence quantum yield (in ClCCl) of 0.11.

For `Cc1ccc(-n2c3ccccc3c3cc(C(=C(C#N)C#N)c4ccccc4)ccc32)cc1`, the photoluminescence quantum yield runs as follows: (in C1CCOC1) 0.12; (in CC#N) 0.07; (in CC(C)=O) 0.05; (in CCOC(C)=O) 0.09; (in CO) 0.01; (in CS(C)=O) 0.02. Besides, the photoluminescence quantum yield (in Cc1ccccc1) was found to be 0.14 and the photoluminescence quantum yield (in ClC(Cl)Cl) came to 0.13.

Consider `CC(C)(C)c1ccc(C#Cc2cc3ccc4cc(C#Cc5ccc(C(C)(C)C)cc5)cc5ccc(c2)c3c45)cc1`, for which the photoluminescence quantum yield (in ClCCl) is 0.14.

As for `F[B-]1(F)n2c(c3cccc4cccc2c43)=Nc2ccc3ccccc3[n+]21`, the photoluminescence quantum yield was 0.98 (in C1CCOC1); 0.99 (in CC#N); 0.63 (in CCCCCC); 0.99 (in Cc1ccccc1); 0.99 (in ClCCl).

For the compound `Cc1ccc2c(c1)nnn2-c1c(C#N)c2c(N)ncnc2n1[C@H]1C[C@H](O)[C@@H](CO)O1`, the photoluminescence quantum yield (in CO) was 0.007.

In turn, `c1ccc(-c2nc(-c3ccccc3)nc(-c3ccc(-n4c5ccccc5c5cc6c(cc54)C4(c5ccccc5-c5ccccc54)c4ccccc4-6)cc3)n2)cc1` came in with a photoluminescence quantum yield under setting [1] of 0.856.
